Measurements published in patent US8673957B2, “Fluorescent probe” (Tetsuo Nagano, priority 2003, dated 2014).

Tests used:
[1] = Fluorescence spectrum: fluorescence characteristics and quantum yield; type: physicochemical; conditions: 0.1 M sodium phosphate buffer (pH 7.4), 20° C.
Description: The fluorescence characteristics of Compound (7) and Compound (8) were measured. The quantum yield was measured by using F-4500 (Hitachi), and the other spectra were measured by using LS50B (Perkin Elmer). The measurement was performed at 20° C. for a solution of a sample dissolved in 0.1 M sodium phosphate buffer (pH 7.4) using dimethyl sulfoxide of less than 0.2% as a cosolvent. The quantum yield was calculated relative to that of fluorescein, which was 0.85 in aqueous 0.1 M NaOH. When similar quantum yield measurements were performed for a compound of the formula (I) wherein R^6 and R^9 were hydrogen atoms (p-DAMBO) and a compound of the formula (II) wherein R^16 and R^19 were hydrogen atoms (p-DAMBO-T) as controls, the quantum yields were 0.001 and 0.40, respectively.

[2] = Effect of pH on the fluorescence intensity; type: physicochemical; conditions: 0.1 M sodium phosphate buffer, 0.1% DMSO, pH range of from 3 to 13
Description: Compounds (7) and (8) were dissolved in 0.1 M sodium phosphate buffer (cosolvents 0.1% DMSO) adjusted to various pH values, and fluorescence was measured in the same manner as those in the aforementioned (b). […] Therefore, according to the measurement of nitrogen monoxide by using the compound of the present invention, extremely high accuracy of the measurement is achieved for a biosample with pH fluctuation.

[3] = Reaction with nitrogen monoxide (NOC 13 as nitrogen monoxide generating agent), excitation/fluorescence spectra and HPLC; conditions: 1 hour, 0.1 M sodium phosphate buffer (pH 7.4)
Description: NOC 13, which is a nitrogen monoxide generating agent, was added to Compound (7), and changes of excitation and fluorescence emission spectra were measured. The compound (7) at 5 μM (cosolvent: 0.1% DMSO) and NOC 13 were incubated at 37° C. for 1 hour in 0.1 M sodium phosphate buffer (pH 7.4), and then excitation and fluorescence spectra were measured. The measurement was performed with slit widths of Ex/Em=2.5/2.5 nm, excitation wavelength of 520 nm, and emission wavelength of 535 nm.

[4] = DMSO less than 0.2% as cosolvent

| Emission maximum [1, 4] [nm] | Extinction coefficient [1, 4] [M⁻¹ cm⁻¹] | Extinction maximum [1, 4] [nm] | Relative quantum yield ([1]; relative to fluorescein (0.85 in aqueous 0.1 M NaOH)) | Structure (SMILES) | change in fluorescence intensity with pH [2] | rate of reaction with nitrogen monoxide (HPLC of product) ([3]; compound at 5 μM with NOC 13, 37° C.) | change of fluorescence after addition of NOC 13 ([3]; compound at 5 μM, NOC 13 0-5.0 μM, 37° C., Ex 520 nm / Em 535 nm) |
| --- | --- | --- | --- | --- | --- | --- | --- |
| 537 | 56000 | 521 | 0.74 | CC1=C(CCC(=O)O)C(C)=[N+]2C1=C(c1ccc3[nH]nnc3c1)c1c(C)c(CCC(=O)O)c(C)n1[B-]2(F)F [Compound (8), 8-(5-Benzotriazolyl)-2,6-bis(2-carboxyethyl)-4,4-difluoro-1,3,5,7-tetramethyl-4-bora-3a,4a-diaza-s-indacene] | Almost no change in the fluorescence intensity | – | – |
| – | – | – | – | CC1=C(CCC(=O)O)C(C)=[N+]2C1=C(c1ccc(N)c(N)c1)c1c(C)c(CCC(=O)O)c(C)n1[B-]2(F)F [Compound (7), 8-(3,4-Diaminophenyl)-2,6-bis(2-carboxyethyl)-4,4-difluoro-1,3,5,7-tetramethyl-4-bora-3a,4a-diaza-s-indacene] | – | extremely rapid reaction | Increase of fluorescence depending on the concentration of added NOC 13 |
